Experimental data reported in patent US5455222A, “1-substituted-5-thiomethylthiocyanato-1H-tetrazoles, compositions containing them and their use as antimicrobial and marine antifouling agents” (The Dow Chemical Company, priority 1994, dated 1995).
≈ marks a conversion by molar mass, not a printed value.

What was measured:
[1] = tested on: Bacillus subtilis (Bs); assay: Minimum inhibitory concentration (MIC), bacteria in nutrient agar; assay type: cell-based, Bacillus subtilis ATCC 8473; details: 48 hours
Description: (§1) The minimum inhibitory concentration (MIC) for the compounds listed in Table I is determined for 9 bacteria, using nutrient agar, and 7 yeast and fungi, using malt yeast agar. A one percent solution of the test compound is prepared in a mixture of acetone and water.
(§2) Nutrient agar is prepared at pH 6.8, representing a neutral medium, and at pH 8.2, representing an alkaline medium. The nutrient agars are prepared by adding 23 g of nutrient agar to one liter of deionized water. In addition, the alkaline medium is prepared by adjusting a 0.04M solution of N-[tris-(hydroxymethyl)methyl]glycine buffered deionized water with concentrated sodium hydroxide to a pH of 8.5.
(§3) The test tubes containing the agar are cooled in a water bath until the temperature of the agar is 48° C. Then, an appropriate amount of the one percent solution of the test compound is added (except in the controls where no compound is added) to the respective test tubes so that the final concentrations are 500, 250, 100, 50, 25, 10, 5, 2.5, 1.0 and zero parts per million of the test compound in the agar, thus having a known concentration of test compound dispersed therein. The contents of the test tubes are then transferred to respective petri plates. After drying for 24 hours, the petri plates containing nutrient agar are inoculated with bacteria and those containing malt yeast agar are inoculated with yeast and fungi.
(§4) The inoculation with bacteria is accomplished by using the following procedure. Twenty-four hour-cultures of each of the bacteria are prepared by incubating the respective bacteria in tubes containing nutrient broth for 24 hours at 30° C. in a shaker. Dilutions of each of the 24 hour-cultures are made so that nine separate suspensions (one for each of the nine test bacteria) are made, each containing 10^8 colony forming units (CFU) per mL of suspension of a particular bacteria. Aliquots of 0.3 mL of each of the bacterial suspensions are used to fill the individual wells of Steer's Replicator. For each microbial suspension, 0.3 mL was used to fill three wells (i.e., three wells of 0.3 mL each) so that for the nine different bacteria, 27 wells are filled. The Steer's Replicator is then used to inoculate both the neutral and alkaline pH nutrient agar petri plates.
(§5) The inoculated petri plates are incubated at 30° C. for 48 hours and then read to determine if the test compound which is incorporated into the agar prevented growth of the respective bacteria.
(§6) Table II lists the bacteria, yeast and fungi used in the MIC test described above along with their respective American Type Culture Collection (ATCC) identification numbers.
(§7) In Tables III and IV, the MIC values of the compounds described in Table I as compared to the MIC of a standard commercial preservative (with 1-(3-chloroallyl)-3,5,7-triaza-1-azoniaadamantane chloride as the active agent and referred to in Tables III and IV as "STANDARD I") are set forth for the bacteria organisms and yeast/fungi organisms which are listed in Table II.

[2] = tested on: Enterobacter aerogenes (Ea); assay: as above; assay type: cell-based, Enterobacter aerogenes ATCC 13048; details: Klebsiella aerogenes, 48 hours
Description: as §1, §2, §3, §4, §5, §6, §7

[3] = tested on: Escherichia coli (Ec); assay: as above; assay type: cell-based, Escherichia coli ATCC 11229; details: 48 hours
Description: as §1, §2, §3, §4, §5, §6, §7

[4] = tested on: Klebsiella pneumoniae (Kp); assay: as above; assay type: cell-based, Klebsiella pneumoniae ATCC 8308; details: 48 hours
Description: as §1, §2, §3, §4, §5, §6, §7

[5] = tested on: Proteus vulgaris (Pv); assay: as above; assay type: cell-based, Proteus vulgaris ATCC 881; details: 48 hours
Description: as §1, §2, §3, §4, §5, §6, §7

[6] = tested on: Pseudomonas aeruginosa (PRD-10); assay: as above; assay type: cell-based, Pseudomonas aeruginosa ATCC 15442; details: 48 hours
Description: as §1, §2, §3, §4, §5, §6, §7

[7] = tested on: Salmonella choleraesuis (Sc); assay: as above; assay type: cell-based, Salmonella choleraesuis ATCC 10708; details: Salmonella enterica, 48 hours
Description: as §1, §2, §3, §4, §5, §6, §7

[8] = tested on: Staphylococcus aureus (Sa); assay: as above; assay type: cell-based, Staphylococcus aureus ATCC 6538; details: 48 hours
Description: as §1, §2, §3, §4, §5, §6, §7

[9] = tested on: Aspergillus niger (An); assay: Minimum inhibitory concentration (MIC), yeast/fungi in malt yeast agar; assay type: cell-based, Aspergillus niger ATCC 16404; details: 30° C., 72 hours for fungi
Description: as §1
(§8) Malt yeast agar is prepared by adding 3 g yeast extract and 45 g malt agar per liter of deionized water. The specific agar is dispensed in 30 mL aliquots into 25×200 mm test tubes, capped and autoclaved for 15 minutes at 115° C.
as §3
(§9) The inoculation with the yeast and fungi is accomplished as follows. Cultures of yeast and fungi are incubated for seven days on malt yeast agar at 30° C. These cultures are used to prepare suspensions by the following procedure. A suspension of each organism is prepared by adding 10 mL of sterile saline and 10 microliters of octylphenoxy polyethoxy ethanol to the agar slant of yeast or fungi. The sterile saline/octylphenoxy polyethoxy ethanol solution is then agitated with a sterile swab to suspend the microorganism grown on the slant. Each resulting suspension is diluted into sterile saline (1 part suspension to 9 parts sterile saline). Aliquots of these dilutions are placed in individual wells of Steer's Replicator and petri plates inoculated as previously described. The petri plates are incubated at 30° C. and read after 48 hours for yeast and 72 hours for fungi.
as §6, §7

[10] = tested on: Candida albicans (Ca); assay: as above; assay type: cell-based, Candida albicans ATCC 10231; details: 30° C., 48 hours for yeast
Description: as §1, §8, §3, §9, §6, §7

[11] = tested on: Penicillium chrysogenum (Pc); assay: as above; assay type: cell-based, Penicillium chrysogenum ATCC 9480; details: 30° C., 72 hours for fungi
Description: as §1, §8, §3, §9, §6, §7

[12] = tested on: Saccharomyces cerevisiae (Sc); assay: as above; assay type: cell-based, Saccharomyces cerevisiae ATCC 4105; details: 30° C., 48 hours for yeast
Description: as §1, §8, §3, §9, §6, §7

[13] = tested on: Trichoderma viride (Tv); assay: as above; assay type: cell-based, Trichoderma viride ATCC 8678; details: 30° C., 72 hours for fungi
Description: as §1, §8, §3, §9, §6, §7

[14] = tested on: Aureobasidium pullulan (Ap); assay: as above; assay type: cell-based, Aureobasidium pullulan ATCC 16622; details: 30° C., read after 48 hours for yeast and 72 hours for fungi
Description: as §1, §8, §3, §9, §6, §7

[15] = tested on: Fusarium oxysporum (Fo); assay: as above; assay type: cell-based, Fusarium oxysporum ATCC 48112; details: 30° C., 72 hours for fungi
Description: as §1, §8, §3, §9, §6, §7

[16] = tested on: Pseudomonas aeruginosa (Pa); assay: Minimum inhibitory concentration (MIC), bacteria in nutrient agar; assay type: cell-based, Pseudomonas aeruginosa ATCC 10145; details: 48 hours
Description: as §1, §2, §3, §4, §5, §6, §7

SMILES	MIC ([1]; nutrient agar pH 6.8, 30° C.)	MIC ([1]; nutrient agar pH 8.2, 30° C.)	MIC ([2]; nutrient agar pH 6.8, 30° C.)	MIC ([2]; nutrient agar pH 8.2, 30° C.)	MIC ([3]; nutrient agar pH 6.8, 30° C.)	MIC ([3]; nutrient agar pH 8.2, 30° C.)	MIC ([4]; nutrient agar pH 6.8, 30° C.)	MIC ([4]; nutrient agar pH 8.2, 30° C.)	MIC ([5]; nutrient agar pH 6.8, 30° C.)	MIC ([5]; nutrient agar pH 8.2, 30° C.)	MIC ([6]; nutrient agar pH 6.8, 30° C.)	MIC ([6]; nutrient agar pH 8.2, 30° C.)	MIC ([7]; nutrient agar pH 6.8, 30° C.)	MIC ([7]; nutrient agar pH 8.2, 30° C.)	MIC ([8]; nutrient agar pH 6.8, 30° C.)	MIC ([8]; nutrient agar pH 8.2, 30° C.)	MIC [9]	MIC [10]	MIC [11]	MIC [12]	further results
Cc1ccc(-n2nnnc2SCSC#N)cc1 [VII, 1-(4-Methylphenyl)-5-thiomethylthiocyanato-1H-tetrazole]	< 10 µg/mL	< 10 µg/mL	> 500 µg/mL	> 500 µg/mL	500 µg/mL (≈ 1900 µM)	500 µg/mL (≈ 1900 µM)	250 µg/mL (≈ 949 µM)	100 µg/mL (≈ 380 µM)	100 µg/mL (≈ 380 µM)	250 µg/mL (≈ 949 µM)	500 µg/mL (≈ 1900 µM)	250 µg/mL (≈ 949 µM)	> 500 µg/mL	> 500 µg/mL	25 µg/mL (≈ 94.9 µM)	50 µg/mL (≈ 190 µM)	2.5 µg/mL (≈ 9.49 µM)	10 µg/mL (≈ 38 µM)	< 1 µg/mL	< 1 µg/mL	MIC [13]: 10 µg/mL (≈ 38 µM); MIC [14]: < 1 µg/mL; MIC [15]: 5 µg/mL (≈ 19 µM)
COc1ccc(-n2nnnc2SCSC#N)cc1 [VIII, 1-(4-Methoxyphenyl)-5-thiomethylthiocyanato-1 H-tetrazole]	< 10 µg/mL	25 µg/mL (≈ 89.5 µM)	250 µg/mL (≈ 895 µM)	500 µg/mL (≈ 1790 µM)	100 µg/mL (≈ 358 µM)	500 µg/mL (≈ 1790 µM)	250 µg/mL (≈ 895 µM)	100 µg/mL (≈ 358 µM)	250 µg/mL (≈ 895 µM)	500 µg/mL (≈ 1790 µM)	100 µg/mL (≈ 358 µM)	500 µg/mL (≈ 1790 µM)	250 µg/mL (≈ 895 µM)	500 µg/mL (≈ 1790 µM)	25 µg/mL (≈ 89.5 µM)	100 µg/mL (≈ 358 µM)	< 10 µg/mL	25 µg/mL (≈ 89.5 µM)	< 10 µg/mL	< 10 µg/mL	MIC ([16]; nutrient agar pH 8.2, 30° C.): 100 µg/mL (≈ 358 µM); MIC [13]: 25 µg/mL (≈ 89.5 µM); MIC [14]: < 10 µg/mL; MIC [15]: < 10 µg/mL
N#CSCSc1nnnn1-c1ccc([N+](=O)[O-])cc1 [XI, 1-(4-Nitrophenyl)-5-thiomethylthiocyanato-1H-tetrazole]	> 100 µg/mL	> 100 µg/mL	> 100 µg/mL	> 100 µg/mL	> 100 µg/mL	> 100 µg/mL	< 100 µg/mL	> 100 µg/mL	< 100 µg/mL	> 100 µg/mL	> 100 µg/mL	> 100 µg/mL	> 100 µg/mL	> 100 µg/mL	100 µg/mL (≈ 340 µM)	50 µg/mL (≈ 170 µM)	5 µg/mL (≈ 17 µM)	100 µg/mL (≈ 340 µM)	< 2.5 µg/mL	10 µg/mL (≈ 34 µM)	MIC ([16]; nutrient agar pH 6.8, 30° C.): > 100 µg/mL; MIC ([16]; nutrient agar pH 8.2, 30° C.): > 100 µg/mL; MIC [13]: 25 µg/mL (≈ 84.9 µM); MIC [14]: 10 µg/mL (≈ 34 µM); MIC [15]: 25 µg/mL (≈ 84.9 µM)
N#CSCSc1nnnn1-c1ccc(C#N)cc1 [XII, 1-(4-Cyanophenyl)-5-thiomethylthiocyanato-1H-tetrazole]	< 10 µg/mL	40 µg/mL (≈ 146 µM)	500 µg/mL (≈ 1820 µM)	> 400 µg/mL	200 µg/mL (≈ 729 µM)	400 µg/mL (≈ 1460 µM)	100 µg/mL (≈ 365 µM)	100 µg/mL (≈ 365 µM)	100 µg/mL (≈ 365 µM)	200 µg/mL (≈ 729 µM)	500 µg/mL (≈ 1820 µM)	400 µg/mL (≈ 1460 µM)	500 µg/mL (≈ 1820 µM)	400 µg/mL (≈ 1460 µM)	20 µg/mL (≈ 72.9 µM)	100 µg/mL (≈ 365 µM)	< 10 µg/mL	200 µg/mL (≈ 729 µM)	< 10 µg/mL	40 µg/mL (≈ 146 µM)	MIC ([16]; nutrient agar pH 8.2, 30° C.): 200 µg/mL (≈ 729 µM); MIC [13]: 40 µg/mL (≈ 146 µM); MIC [14]: < 10 µg/mL; MIC [15]: 20 µg/mL (≈ 72.9 µM)
